# ChEMBL document CHEMBL1159031, “Cytotoxic quassinoids from Cedronia granatensis” (1992)
# Experiments:
# Assay type in all cases: functional
# CCRF-CEM = test: Cytotoxicity against human CCRF-CEM cells; settings: read-out: Log10LC50 (converted)
# HL-60(TB) = test: Cytotoxicity against human HL-60(TB) cells; settings: read-out: Log10LC50 (converted)
# K562 = test: Cytotoxicity against human K562 cells; settings: read-out: Log10LC50 (converted)
# MOLT-4 = test: Cytotoxicity against human MOLT4 cells; settings: read-out: Log10LC50 (converted)
# RPMI-8226 = test: Cytotoxicity against human RPMI8226 cells; settings: read-out: Log10LC50 (converted)
# SR = test: Cytotoxicity against human SR cells; settings: read-out: Log10LC50 (converted)
# A549 = test: Cytotoxicity against human A549 cells; settings: read-out: Log10LC50 (converted)
# EKVX = test: Cytotoxicity against human EKVX cells; settings: read-out: Log10LC50 (converted)
# HOP-18 = test: Cytotoxicity against human HOP18 cells; settings: read-out: Log10LC50 (converted)
# HOP-62 = test: Cytotoxicity against human HOP62 cells; settings: read-out: Log10LC50 (converted)
# HOP-92 = test: Cytotoxicity against human HOP92 cells; settings: read-out: Log10LC50 (converted)
# NCI-H226 = test: Cytotoxicity against human NCI-H226 cells; settings: read-out: Log10LC50 (converted)
# NCI-H23 = test: Cytotoxicity against human NCI-H23 cells; settings: read-out: Log10LC50 (converted)
# [1] = Cytotoxicity against human NCI-H322 cells; settings: read-out: Log10LC50 (converted)
# NCI-H460 = test: Cytotoxicity against human NCI-H460 cells; settings: read-out: Log10LC50 (converted)
# NCI-H522 = test: Cytotoxicity against human NCI-H522 cells; settings: read-out: Log10LC50 (converted)
# [2] = Cytotoxicity against human LXFL 529L cells; settings: read-out: Log10LC50 (converted)
# DMS-114 = test: Cytotoxicity against human DMS114 cells; settings: read-out: Log10LC50 (converted)
# DMS-273 = test: Cytotoxicity against human DMS273 cells; settings: read-out: Log10LC50 (converted)
# COLO 205 = test: Cytotoxicity against human COLO205 cells; settings: read-out: Log10LC50 (converted)
# HCC 2998 = test: Cytotoxicity against human HCC2998 cells; settings: read-out: Log10LC50 (converted)
# HCT-116 = test: Cytotoxicity against human HCT116 cells; settings: read-out: Log10LC50 (converted)
# HCT-15 = test: Cytotoxicity against human HCT15 cells; settings: read-out: Log10LC50 (converted)
# HT-29 = test: Cytotoxicity against human HT-29 cells; settings: read-out: Log10LC50 (converted)
# KM12 = test: Cytotoxicity against human KM12 cells; settings: read-out: Log10LC50 (converted)
# KM-20L2 = test: Cytotoxicity against human KM20L2 cells; settings: read-out: Log10LC50 (converted)
# SW-620 = test: Cytotoxicity against human SW620 cells; settings: read-out: Log10LC50 (converted)
# SF-268 = test: Cytotoxicity against human SF268 cells; settings: read-out: Log10LC50 (converted)
# SF-295 = test: Cytotoxicity against human SF295 cells; settings: read-out: Log10LC50 (converted)
# SF-539 = test: Cytotoxicity against human SF539 cells; settings: read-out: Log10LC50 (converted)
# SNB-19 = test: Cytotoxicity against human SNB19 cells; settings: read-out: Log10LC50 (converted)
# SNB-75 = test: Cytotoxicity against human SNB75 cells; settings: read-out: Log10LC50 (converted)
# SNB-78 = test: Cytotoxicity against human SNB78 cells; settings: read-out: Log10LC50 (converted)
# U-251 = test: Cytotoxicity against human U251 cells; settings: read-out: Log10LC50 (converted)
# XF498 = test: Cytotoxicity against human XF498 cells; settings: read-out: Log10LC50 (converted)
# LOX IMVI = test: Cytotoxicity against human LOXIMVI cells; settings: read-out: Log10LC50 (converted)
# Malme-3M = test: Cytotoxicity against human MALME-3M cells; settings: read-out: Log10LC50 (converted)
# M14 = test: Cytotoxicity against human M14 cells; settings: read-out: Log10LC50 (converted)
# SK-MEL-2 = test: Cytotoxicity against human SK-MEL-2 cells; settings: read-out: Log10LC50 (converted)
# SK-MEL-28 = test: Cytotoxicity against human SK-MEL-28 cells; settings: read-out: Log10LC50 (converted)
# SK-MEL-5 = test: Cytotoxicity against human SK-MEL-5 cells; settings: read-out: Log10LC50 (converted)
# UACC-257 = test: Cytotoxicity against human UACC257 cells; settings: read-out: Log10LC50 (converted)
# UACC-62 = test: Cytotoxicity against human UACC62 cells; settings: read-out: Log10LC50 (converted)
# IGROV-1 = test: Cytotoxicity against human IGROV1 cells; settings: read-out: Log10LC50 (converted)
# OVCAR-3 = test: Cytotoxicity against human OVCAR-3 cells; settings: read-out: Log10LC50 (converted)
# OVCAR-4 = test: Cytotoxicity against human OVCAR4 cells; settings: read-out: Log10LC50 (converted)
# OVCAR-5 = test: Cytotoxicity against human OVCAR5 cells; settings: read-out: Log10LC50 (converted)
# OVCAR-8 = test: Cytotoxicity against human OVCAR8 cells; settings: read-out: Log10LC50 (converted)
# SK-OV-3 = test: Cytotoxicity against human SKOV3 cells; settings: read-out: Log10LC50 (converted)
# [3] = Cytotoxicity against human 786-O cells; settings: 786-0, read-out: Log10LC50 (converted)
# A498 = test: Cytotoxicity against human A498 cells; settings: read-out: Log10LC50 (converted)
# ACHN = test: Cytotoxicity against human ACHN cells; settings: read-out: Log10LC50 (converted)
# CAKI-1 = test: Cytotoxicity against human Caki1 cells; settings: read-out: Log10LC50 (converted)
# RXF 393 = test: Cytotoxicity against human RXF393 cells; settings: read-out: Log10LC50 (converted)
# SN12C = test: Cytotoxicity against human SN12C cells; settings: read-out: Log10LC50 (converted)
# TK-10 = test: Cytotoxicity against human TK10 cells; settings: read-out: Log10LC50 (converted)
# UO-31 = test: Cytotoxicity against human UO31 cells; settings: read-out: Log10LC50 (converted)
# DLD-1 = test: Cytotoxicity against human DLD1 cells; settings: read-out: Log10LC50 (converted)
# M19-MEL = test: Cytotoxicity against human M19-MEL cells; settings: read-out: Log10LC50 (converted)
# [4] = Cytotoxicity against human RXF631 cells; settings: RXF 631, read-out: Log10LC50 (converted)
smiles,measurement,setting,value
COC(=O)[C@]12OC[C@]34[C@H]([C@@H](O)[C@@H]1O)[C@@]1(C)C=C5OC(=O)C=C5[C@@H](C)[C@@H]1C[C@H]3OC(=O)[C@H](OC(C)=O)[C@@H]24 [SERGEOLIDE],CC50,CCRF-CEM,3980 nM
same,CC50,HL-60(TB),57.5 nM
same,CC50,K562,3980 nM
same,CC50,MOLT-4,3890 nM
same,CC50,RPMI-8226,3980 nM
same,CC50,SR,3980 nM
same,CC50,A549,3980 nM
same,CC50,EKVX,891 nM
same,CC50,HOP-18,3980 nM
same,CC50,HOP-62,1910 nM
same,CC50,HOP-92,3980 nM
same,CC50,NCI-H226,66.1 nM
same,CC50,NCI-H23,70.8 nM
same,CC50,[1],3980 nM
same,CC50,NCI-H460,457 nM
same,CC50,NCI-H522,15.8 nM
same,CC50,[2],67.6 nM
same,CC50,DMS-114,36.3 nM
same,CC50,DMS-273,110 nM
same,CC50,COLO 205,21.9 nM
same,CC50,HCC 2998,28.8 nM
same,CC50,HCT-116,129 nM
same,CC50,HCT-15,1910 nM
same,CC50,HT-29,3800 nM
same,CC50,KM12,437 nM
same,CC50,KM-20L2,3980 nM
same,CC50,SW-620,3980 nM
same,CC50,SF-268,2090 nM
same,CC50,SF-295,380 nM
same,CC50,SF-539,25.7 nM
same,CC50,SNB-19,3980 nM
same,CC50,SNB-75,38.9 nM
same,CC50,SNB-78,2510 nM
same,CC50,U-251,3980 nM
same,CC50,XF498,58.9 nM
same,CC50,LOX IMVI,288 nM
same,CC50,Malme-3M,12 nM
same,CC50,M14,20.9 nM
same,CC50,SK-MEL-2,26.9 nM
same,CC50,SK-MEL-28,120 nM
same,CC50,SK-MEL-5,6.61 nM
same,CC50,UACC-257,58.9 nM
same,CC50,UACC-62,32.4 nM
same,CC50,IGROV-1,3980 nM
same,CC50,OVCAR-3,3980 nM
same,CC50,OVCAR-4,44.7 nM
same,CC50,OVCAR-5,3310 nM
same,CC50,OVCAR-8,776 nM
same,CC50,SK-OV-3,3980 nM
same,CC50,[3],407 nM
same,CC50,A498,57.5 nM
same,CC50,ACHN,3390 nM
same,CC50,CAKI-1,3980 nM
same,CC50,RXF 393,51.3 nM
same,CC50,SN12C,3980 nM
same,CC50,TK-10,3980 nM
same,CC50,UO-31,2880 nM
same,CC50,DLD-1,3240 nM
same,CC50,M19-MEL,19.9 nM
same,CC50,[4],3720 nM
